Laboratory results reported in US7592003B2, “Regulation of toll-like receptors on stem cells” (Oklahoma Medical Research Foundation, priority 2005, dated 2009).

Experiments:
CLP = assay: Serum-free, stromal cell-free culture of CLP with SCF, FL and IL-7, CD19/Mac-1 flow cytometry; format: cell-based, mouse
Method: FIGS. 6A-D—TLR stimulation allows lymphoid biased progenitors to produce myeloid dendritic cells at the expense of B lymphopoiesis. (FIG. 6A) Sorted CLP (5,000/well) from C57BL/6 or MyD88^−/− mice were stimulated in X-VIVO15 with medium alone, LPS (10 μg/ml) or Pam3CSK4 (100 ng/ml) plus SCF, FL and IL-7. After 7 days in culture, cells were analyzed by flow cytometry for expression of CD19and Mac-1 (left). The bar graphs depict cell yields for CD19^+ cells or Mac-1^+ cells (right) and the data represent mean values with standard deviations from triplicate cultures (*P<0.02). The results are representative of those obtained in five independent experiments. (FIG. 6B) Subsets of the recovered cells described in FIG. 6A were sorted and used to prepare Giemsa stained slides. (FIG. 6C) Cultured cells from C57BL/6 mice were also analyzed by flow cytometry for expression of Gr-1 and CD11c. (FIG. 6D) Sorted CLP from C57BL/6 mice were cultured in the presence of SCF, FL and IL-7 with a range of concentrations of LPS or combination of recombinant mouse CD14-Fc protein (1 μg/ml) plus LPS. After 7 days in culture, cells were analyzed by flow cytometry for expression of CD19 and Mac-1 (left). The bar graph depicts cell yields for CD19^+ cells or Mac-1^+ cells (right). Data represent mean values with standard deviations from triplicate cultures (*P<0.003). […]

GMP = assay: Culture of sorted GMP for 72 h, morphology and Mac-1/F4/80 flow cytometry; format: cell-based, mouse
Method: FIGS. 5A-C—TLR stimulation drives differentiation of GMP into F4/80^hi monocytes/macrophages. (FIG. 5A) These photomicrographs were prepared with Giemsa-May-Grünwald stained cytocentrifuged slides. ([…]) Sorted GMP were stimulated with LPS (1 μg/ml), Pam3CSK4 (100 ng/ml), M-CSF, or GM-CSF. After 72 h in culture, cells were analyzed by flow cytometry for expression of F4/80 and Mac-1. Percentages indicate the frequencies of Mac-1^lo F4/80^lo or Mac-1^hi F4/80^hi cells. CD86, Gr-1, or CD62L were analyzed by flow cytometry on Mac-1^hi F4/80^hi cells. Open histograms depict staining with the appropriate isotype matched Abs. The results are representative of those obtained in two independent experiments. (FIG. 5C) The bar graphs depict cell yields of Mac-1^lo F4/80^lo or Mac-1^hi F4/80^hi cells. The data represent mean values with standard deviations from triplicate cultures and are representative of three independent experiments.
Serum-free, stromal cell-free cell cultures. Round-bottomed 96-well plates or flat-bottomed 24-well plates (Corning Inc.) were used for these cultures. […]
Cell morphology. Cytospins of cultured progenitor cells were stained with Giemsa-May-Grünwald (Sigma Diagnostics, St. Louis, Mo.), mounted in Immersol (Zeiss, Thornwood, N.Y.), and analyzed on a Zeiss Axioplan 2i microscope with a 100×/1.4 NA Plan Achromat objective. […]

Pam3CSK4
Phenotype (CD11c, Gr-1) of cells produced from CLP (CLP; 7 days): Gr-1^− but less homogenous
Cell types emerging from CLP (CD19+ vs Mac-1+) (CLP; with SCF, FL and IL-7, 7 days): a mixture of the two cell types
CD11b/Mac-1 expression of cells produced from GMP (GMP): Virtually all cells produced in response to LPS or Pam3CSK4 were CD11b/Mac-1^+
Morphology of recovered cells (GMP; GMP, Giemsa-May-Grünwald): less homogeneous in appearance
